Results on five compounds are retold here after ChEMBL document CHEMBL1138719, “Tocopherol long chain fatty alcohols decrease the production of TNF-alpha and NO radicals by activated microglial cells” (Bioorg Med Chem Lett, 2004).

The source made the active and inactive calls. No cut-off for these calls is given here.

Common to all, as to assay type: functional, cell-based
The subject of assay [1] is MMGT12. Nature of the assay: inhibition of LPS-induced nitrite accumulation in mouse MMGT12 cells at 1e-6 M concentration; Slight inhibition.
In assay [2] the test system is MMGT12. The assay is described as follows: inhibition of LPS-induced nitrite accumulation in mouse MMGT12 cells at 1e-5 M concentration; Strong inhibition inhibition.
Assay [3] relates to MMGT12. The assay is described as follows: inhibition of LPS-induced TNF-alpha production in mouse MMGT12 cells at 1e-5 M concentration; Slight inhibition.
Assay [4] has as its system MMGT12. Nature of the assay: inhibition of LPS-induced TNF-alpha production in mouse MMGT12 cells at 1e-5 M; Major inhibition.
The subject of assay [5] is MMGT12. Nature of the assay: inhibition of LPS-induced TNF-alpha production in mouse MMGT12 cells at 1e-6 M; Major inhibition.
Assay [6] deals with MMGT12. The assay is described as follows: inhibition of LPS-induced TNF-alpha production in mouse MMGT12 cells at 1e-5 M to 1e-7 M concentration; No effect.

Take `Cc1c(C)c2c(c(C)c1O)CCC(C)(CCCCCCCCCCCCCCCCO)O2` (stereo unspecified): the Activity result in assay [1], in assay [2] and in assay [3] was “Slight inhibition” throughout.

On to `Cc1c(C)c2c(c(C)c1O)CCC(C)(CCCCCCCCCCCCO)O2` (stereo unspecified), for which the Activity entry in assay [4], in assay [5] and in assay [2] was “Major inhibition” throughout.

`Cc1c(C)c2c(c(C)c1O)CCC(C)(CCCCCCCCCCO)O2` (stereo unspecified): in assay [6], the outcome was inactive.

`Cc1c(C)c2c(c(C)c1O)CCC(C)(CCCCCCCCCCCCCCO)O2` (stereo unspecified): the Activity entry in assay [4], in assay [5] and in assay [2] was “Major inhibition” each time.

On to `Cc1c(C)c2c(c(C)c1O)CCC(C)(CCC[C@H](C)CCCC(C)CCCC(C)C)O2` (single isomer, unassigned), for which, in assay [6], the outcome was inactive.
